{
  "source": "patent US20020045780A1",
  "about": "“Biologically active spermidine analogues, pharmaceutical compositions and methods of treatment” (priority 1997, published 2002)",
  "key": {"[1]": {"target": "polyamine transport apparatus", "details": "inhibition of spermidine transport, L1210; read-out: Ki, corresponding tetraamine (in parentheses); cited from earlier work"}, "L1210 cells [2]": {"tested_on": "L1210 cells", "details": "48 hours, cited from earlier work; for Put, corresponding tetraamine (in parentheses) / Spd, corresponding tetraamine (in parentheses) / Spm, corresponding tetraamine (in parentheses): % of untreated control; for Analogue, corresponding tetraamine (in parentheses): intracellular amount"}, "mice [3]": {"tested_on": "mice", "test": "Acute toxicity in mice (single i.p. dose)", "format": "in vivo", "details": "mice, single dose i.p., scored two hours after dose, hydrochloride salts", "method": "(§1) In the current study, the acute toxicity of six analogues and the chronic toxicity of two triamines were measured (Table 7). The value of all polyamine LD50s are shown in both mg/kg and mmol/kg for comparison. […] The animals were scored two hours after administration of the drug. It is clear that the acute LD50s for triamine analogues are approximately twice the acute LD50s for the corresponding tetraamine analogues.\n(§2) Acute and chronic toxicities were assessed in 10-12 week old CD-1 female mice from Harlan Sprague-Dawley. For acute toxicities, the polyamine analogues were administered in a single i.p. injection to groups of five or six animals at each dose. The animals were scored two hours after administration of the dose. All survivors were further observed for 10 days to assess late onset of toxicity from the single acute dose. In the chronic toxicity regimen, mice were administered polyamine analogue in three i.p. doses per day (t.i.d.) for six days, for a total of eighteen doses per animal. Appetite, weight and overall appearance were monitored daily. […] At least three test groups of 5-6 animals each, representing three different dose levels, were evaluated for each analogue tested. These dose levels were chosen so that at least two groups presented with lethalities, one with a high fraction of lethalities (>0.50, but <1.00)."}, "[4]": {"test": "Acute toxicity in mice (single i.p. dose)", "format": "in vivo", "details": "female, CD-1, mouse, in vivo, ip, mice, single dose i.p., scored two hours after dose, read-out: Acute LD50", "method": "as §1, §2"}, "[5]": {"tested_on": "spermidine/spermine acetyltransferase (SSAT)", "details": "L1210, 2 μM at 48 hours (tetraamine analogues); cited from earlier work"}, "mice [6]": {"tested_on": "mice", "details": "cited from earlier work"}, "L1210 cells [7]": {"tested_on": "L1210 cells", "details": "cited from earlier work"}, "[8]": {"tested_on": "ornithine decarboxylase (ODC)", "details": "L1210, 1 μM at 4 hours; cited from earlier work"}, "[9]": {"tested_on": "S-adenosylmethionine decarboxylase (AdoMetDC)", "details": "L1210, 1 μM at 6 hours; cited from earlier work"}, "SSAT": {"tested_on": "SSAT", "details": "MALME-3 cells; cited from earlier work"}, "L1210 cells [10]": {"tested_on": "L1210 cells", "test": "Metabolic transformation of polyamine analogues by L1210 cells", "format": "in vitro ADME, murine", "details": "48 hours, 100 μM analogue", "method": "The cells were washed twice with cold RPMI-1640, and the pellet was treated with 0.6 N HClO4 (1 ml/10^7 cells). Polyamine contents of the perchloric acid extracts were quantitated by HPLC of the DANSYL derivatives [Bergeron et al, J. Med. Chem., Vol. 37, supra]."}, "[11]": {"details": "L1210, 48 hour exposure, read-out: IC50 48 hour, corresponding tetraamine (in parentheses)"}, "[12]": {"details": "L1210, 96 hour exposure, read-out: IC50 96 hour, corresponding tetraamine (in parentheses)"}},
  "note": "Like-named read-outs stand apart in the source and are kept apart here.",
  "data": [
    {"smiles": "CCNCCCCNCCCCCNCCCCNCC", "note": "[DE(4,5,4)]", "values": [
      {"measurement": "Ki", "setting": "[1]", "value": 6, "unit": "µM"},
      {"measurement": "Put, corresponding tetraamine (in parentheses)", "setting": "L1210 cells [2]; 0.3 μM", "value": "(44) %"},
      {"measurement": "Spd, corresponding tetraamine (in parentheses)", "setting": "L1210 cells [2]; 0.3 μM", "value": "(61) %"},
      {"measurement": "Spm, corresponding tetraamine (in parentheses)", "setting": "L1210 cells [2]; 0.3 μM", "value": "(70) %"},
      {"measurement": "Analogue, corresponding tetraamine (in parentheses)", "setting": "L1210 cells [2]; 0.3 μM", "value": "(0.26) nmol/10^6 cells"},
      {"measurement": "Acute LD50", "setting": "mice [3]", "value": 285, "unit": "mg/kg"},
      {"measurement": "LD50 at 2 h", "setting": "[4]", "value": 638, "unit": "µmol/kg"},
      {"measurement": "SSAT activity, corresponding tetraamine (in parentheses)", "setting": "[5]", "value": "120 (120) percent of untreated control"},
      {"measurement": "Chronic LD50 (tetraamines)", "setting": "mice [6]; mice, i.p. t.i.d. × 6 days", "value": 0.104, "unit": "mmol/kg/day"},
      {"measurement": "Chronic LD50 (tetraamines)", "setting": "mice [6]; mouse, in vivo, ip", "value": 48, "unit": "mg/kg-day"},
      {"measurement": "IC50", "setting": "L1210 cells [7]; [11]", "value": 0.3, "unit": "µM"},
      {"measurement": "IC50", "setting": "L1210 cells [7]; [12]", "value": 0.035, "unit": "µM"},
      {"measurement": "ODC activity, corresponding tetraamine (in parentheses)", "setting": "[8]", "value": "20% of untreated control"}
    ]},
    {"smiles": "CCNCCCCCNCCCCNCCCCCNCC.Cl.Cl.Cl.Cl", "note": "[DE(5,4,5), 3,9,14,20-Tetraazadocosane Tetrahydrochloride]", "values": [
      {"measurement": "Ki", "setting": "[1]", "value": 16, "unit": "µM"},
      {"measurement": "AdoMetDC activity, corresponding tetraamine (in parentheses)", "setting": "[9]", "value": "54% of untreated control"},
      {"measurement": "Put, corresponding tetraamine (in parentheses)", "setting": "L1210 cells [2]; 0.75 μM", "value": "(0) %"},
      {"measurement": "Spd, corresponding tetraamine (in parentheses)", "setting": "L1210 cells [2]; 0.75 μM", "value": "(10) %"},
      {"measurement": "Spm, corresponding tetraamine (in parentheses)", "setting": "L1210 cells [2]; 0.75 μM", "value": "(58) %"},
      {"measurement": "Analogue, corresponding tetraamine (in parentheses)", "setting": "L1210 cells [2]; 0.75 μM", "value": "(1.48) nmol/10^6 cells"},
      {"measurement": "LD50 at 2 h", "setting": "[4]; hydrochloride salts", "value": 195, "unit": "mg/kg"},
      {"measurement": "LD50 at 2 h", "setting": "[4]", "value": 424, "unit": "µmol/kg"},
      {"measurement": "SSAT activity, corresponding tetraamine (in parentheses)", "setting": "[5]", "value": "190% of untreated control"},
      {"measurement": "Chronic LD50 (tetraamines)", "setting": "mice [6]; mice, i.p. t.i.d. × 6 days, hydrochloride salts", "value": 36, "unit": "mg/kg-day"},
      {"measurement": "Chronic LD50 (tetraamines)", "setting": "mice [6]; mice, i.p. t.i.d. × 6 days", "value": 0.078, "unit": "mmol/kg/day"},
      {"measurement": "IC50", "setting": "L1210 cells [7]; [11]", "value": 0.4, "unit": "µM"},
      {"measurement": "IC50", "setting": "L1210 cells [7]; [12]", "value": 0.03, "unit": "µM"},
      {"measurement": "ODC activity, corresponding tetraamine (in parentheses)", "setting": "[8]", "value": "19% of untreated control"}
    ]},
    {"smiles": "CCNCCCCNCCCCNCCCCNCC", "note": "[DEHSPM, N^1,N^14-diethylhomospermine]", "values": [
      {"measurement": "Ki", "setting": "[1]", "value": 1.4, "unit": "µM"},
      {"measurement": "Put, corresponding tetraamine (in parentheses)", "setting": "L1210 cells [2]; 10 μM", "value": "(0) %"},
      {"measurement": "Spd, corresponding tetraamine (in parentheses)", "setting": "L1210 cells [2]; 10 μM", "value": "(0) %"},
      {"measurement": "Spm, corresponding tetraamine (in parentheses)", "setting": "L1210 cells [2]; 10 μM", "value": "(61) %"},
      {"measurement": "Analogue, corresponding tetraamine (in parentheses)", "setting": "L1210 cells [2]; 10 μM", "value": "(2.94) nmol/10^6 cells"},
      {"measurement": "SSAT up-regulation", "setting": "SSAT", "value": 30, "unit": "fold"},
      {"measurement": "SSAT activity, corresponding tetraamine (in parentheses)", "setting": "[5]", "value": "110% of untreated control"},
      {"measurement": "IC50", "setting": "L1210 cells [7]; [11]", "value": 0.2, "unit": "µM"},
      {"measurement": "IC50", "setting": "L1210 cells [7]; [12]", "value": 0.07, "unit": "µM"},
      {"measurement": "ODC activity, corresponding tetraamine (in parentheses)", "setting": "[8]", "value": "7% of untreated control"},
      {"measurement": "N-Monodealkylation (result in words)", "setting": "L1210 cells [10]", "value": "no N-deethylation"},
      {"measurement": "Parent drug as % of total drug in the cell", "setting": "L1210 cells [10]", "value": 100, "unit": "%"},
      {"measurement": "Parent drug in L1210 cells", "setting": "L1210 cells [10]", "value": 4215, "unit": "pmols/10^6"}
    ]}
  ]
}
